# Test results as given in patent publication US20230271956A1, “AMIDE DERIVATIVES” (Merck Patent GmbH, priority 2020, published 2023).
# What was measured:
# [1] = molecular target: T1, ACSS2 (Homo sapiens, UniProt Q9NR19); experiment: Cellular assay of 14C acetate incorporation into fatty acids (IC50 ACSS2 cellular lipids); format: cell-based; conditions: HCT-15 cells
# T1 construct: endogenous fatty acid synthesis activity in the human HCT-15 cancer cell line; endogenous in cells; host or cells: HCT-15
# Method in brief: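 Human HCT-15 cells, 24 h on collagen, pre-incubated with compound 2 h at 37 °C in RPMI 1640/10 mM HEPES (≤0.1% DMSO), then 2 h with 14C-acetate plus AlamarBlue as viability check. Lysis at 70 °C, acidified fatty acids captured on scintillant plates; 14C incorporation counted as CPM.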
# [2] = system: CHO-K1 cells; experiment: Micronucleus assay (MNT) in vitro; format: cell-based; set-up: key: A: negative, putative negative (micronuclei detected beyond threshold of 60% cyctotoxicity); B: positive; conditions: 24 hrs treatment, 0.2 µM to 100 µM
# Description: The in vitro MNT assay is performed in CHO-K1 cells due to their stable and welI-characterized karyotype, high sensitivity and suitability for a high content imaging approach. They have a basal spontaneous micronucleus frequency of 3-4%.
# 24 hrs after plating CHO-K1 cells are treated with test compounds for 24 hrs (in duplicates; fixed concentration ranges from 0.2 µM to 100 µM in 2-fold dilution steps). After a medium change cells are incubated for 24 hrs with Cytochalasin B to block cytokinesis and are then fixed and nuclei / micronuclei visualized with a DNA stain. Images are acquired with the Molecular Devices high content imagers IXU or IXM and are analyzed with the dedicated MetaXpress software micronucleus module. Criteria for scoring of micronuclei (MN) are the following: • diameter of the MN should be less than ⅓ of the main nucleus • MN should be separated from or marginally overlap with main nucleus (= no blebs) • MN should have similar staining as the main nucleus At least 1000 binucleated cells are evaluated per treatment replicate. Mitomycin C is used as reference stimulator of micronucleus formation. Cytotoxicity is evaluated in parallel and defined by comparing total nuclei count in compound-treated samples to neutral control samples treated with vehicle only (1% DMSO) (100% cytotoxicity means all cells are dead or lost).
# A test compound is regarded as POSITIVE if generation of micronuclei and exhibition of less than 60% cytotoxicity at the same concentration can be observed.
# Compounds are scored only in the soluble concentration range. Experimental data of the compounds shown in Table 1 in the MNT assay are shown in Table 2 below and classified in the following groups: […]
# [3] = molecular target: T2, human rec ACSS2 (Homo sapiens, UniProt Q9NR19); experiment: Biochemical activity ACSS2 assay (AMP-Glo); conditions: human recombinant ACSS2, AMP-Glo, 180 min at 37° C.
# T2 construct: myc (C); purchased Origene
# Method in brief: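 C-terminal myc-tagged human recombinant ACSS2 (1 nM) reacted with 100 µM ATP, 100 µM CoA and 500 µM acetate (final) in pH 7.5 Hepes buffer for 180 min at 37° C, compound in 10 concentrations from 30 µM. Released AMP detected by AMP-Glo luminescence. IC50 normalised to inhibitor-free reaction and 5 µM reference inhibitor.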
# T2 sequence (Q9NR19 whole entry): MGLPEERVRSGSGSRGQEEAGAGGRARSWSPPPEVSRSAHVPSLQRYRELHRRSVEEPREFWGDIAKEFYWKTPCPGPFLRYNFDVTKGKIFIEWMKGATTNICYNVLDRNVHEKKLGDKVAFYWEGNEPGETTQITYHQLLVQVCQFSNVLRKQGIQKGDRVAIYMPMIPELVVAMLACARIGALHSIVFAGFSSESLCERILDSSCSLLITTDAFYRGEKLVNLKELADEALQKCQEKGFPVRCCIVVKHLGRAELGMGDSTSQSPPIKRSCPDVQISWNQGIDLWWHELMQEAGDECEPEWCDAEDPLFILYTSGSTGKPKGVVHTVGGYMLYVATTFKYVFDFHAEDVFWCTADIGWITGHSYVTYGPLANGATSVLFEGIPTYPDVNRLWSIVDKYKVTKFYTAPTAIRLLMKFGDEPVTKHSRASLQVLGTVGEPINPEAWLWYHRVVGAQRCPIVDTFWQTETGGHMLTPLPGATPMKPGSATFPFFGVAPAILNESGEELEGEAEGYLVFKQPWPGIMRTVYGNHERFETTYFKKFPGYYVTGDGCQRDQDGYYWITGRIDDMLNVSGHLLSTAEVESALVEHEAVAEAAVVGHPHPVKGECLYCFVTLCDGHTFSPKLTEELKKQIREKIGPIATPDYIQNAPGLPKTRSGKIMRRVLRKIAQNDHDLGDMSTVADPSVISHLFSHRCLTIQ
# T1 sequence (Q9NR19 whole entry): as above
structure (smiles),measurement,setting,value
"CCc1c(C(O)(c2ccccc2)c2ccccc2)nc2cc(OC)c(C(=O)Nc3cnn(CC)c3)cn12 [Compound 23, 3-Ethyl-2-(hydroxy-diphenyl-methyl)-7-methoxy-imidazo[1,2-a]pyridine-6-carboxylic acid (1-ethyl-1H-pyrazol-4-yl)-amide]",IC50,[1],10 to 100 nM
same,MNT,[2],A
same,IC50,[3],1 to 10 nM
"CCc1c(C(O)(c2ccccc2)c2ccccc2)nc2cc(OC)c(C(=O)Nc3ncn(CC)n3)cn12 [Compound 24, 3-Ethyl-2-(hydroxy-diphenyl-methyl)-7-methoxy-imidazo[1,2-a]pyridine-6-carboxylic acid (1-ethyl-1H-[1,2,4]triazol-3-yl)-amide]",IC50,[1],1 to 10 nM
same,MNT,[2],A
same,IC50,[3],1 to 10 nM
"CCc1c(C(O)(c2ccccc2)c2ccccc2)nc2ccc(C(=O)Nc3ncn(CC)n3)cn12 [Compound 25, 3-Ethyl-2-(hydroxy-diphenyl-methyl)-imidazo[1,2-a]pyridine-6-carboxylic acid (1-ethyl-1H-[1,2,4]triazol-3-yl)-amide]",IC50,[1],1 to 10 nM
same,MNT,[2],A
same,IC50,[3],1 to 10 nM
"CCc1c(C(O)(c2ccccc2F)c2ccccc2F)nc2cc(OC)c(C(=O)Nc3ncn(CC)n3)cn12 [Compound 28, 2-[Bis-(2-fluoro-phenyl)-hydroxy-methyl]-3-ethyl-7-methoxy-imidazo[1,2-a]pyridine-6-carboxylic acid (1-ethyl-1H-[1,2,4]triazol-3-yl)-amide]",IC50,[1],1 to 10 nM
same,MNT,[2],A
same,IC50,[3],1 to 10 nM
"CCc1c(C(O)(c2ccccc2F)c2ccccc2F)nc2cc(OC)c(C(=O)Nc3cnn(CC)c3)cn12 [Compound 30, 2-[Bis-(2-fluoro-phenyl)-hydroxy-methyl]-3-ethyl-7-methoxy-imidazo[1,2-a]pyridine-6-carboxylic acid (1-ethyl-1H-pyrazol-4-yl)-amide]",IC50,[1],0.01 to 1 nM
same,MNT,[2],A
same,IC50,[3],1 to 10 nM
"CCc1c(C(O)(c2ccccc2F)c2ccccc2F)nc2cc(Cl)c(C(=O)Nc3ncn(CC)n3)cn12 [Compound 31, 2-[Bis-(2-fluoro-phenyl)-hydroxy-methyl]-7-chloro-3-ethyl-imidazo[1,2-a]pyridine-6-carboxylic acid (1-ethyl-1H-[1,2,4]triazol-3-yl)-amide]",IC50,[1],1 to 10 nM
same,MNT,[2],A
same,IC50,[3],1 to 10 nM
"CCn1cnc(NC(=O)c2cc3c(nc2F)nc(C(O)(c2ccccc2)c2ccccc2)n3CC)n1 [Compound 89, 1-ethyl-N-(1-ethyl-1H-1,2,4-triazol-3-yl)-5-fluoro-2-(hydroxydiphenylmethyl)-1H-imidazo[4,5-b]pyridine-6-carboxamide]",IC50,[1],1 to 10 nM
same,MNT,[2],A
same,IC50,[3],1 to 10 nM
"CCn1cc(NC(=O)c2cc3c(nc2F)nc(C(O)(c2ccccc2F)c2ccccc2F)n3CC)cn1 [Compound 90, 2-[bis(2-fluorophenyl)(hydroxy)methyl]-1-ethyl-N-(1-ethyl-1H-pyrazol-4-yl)-5-fluoro-1H-imidazo[4,5-b]pyridine-6-carboxamide]",IC50,[1],1 to 10 nM
same,MNT,[2],A
same,IC50,[3],1 to 10 nM
"CCn1cnc(NC(=O)c2cc3c(nc2F)nc(C(O)(c2ccccc2F)c2ccccc2F)n3CC)n1 [Compound 91, 2-[bis(2-fluorophenyl)(hydroxy)methyl]-1-ethyl-N-(1-ethyl-1H-1,2,4-triazol-3-yl)-5-fluoro-1H-imidazo[4,5-b]pyridine-6-carboxamide]",IC50,[1],1 to 10 nM
same,MNT,[2],A
same,IC50,[3],1 to 10 nM
"CCn1cc(NC(=O)c2cc3c(nc2Cl)nc(C(O)(c2ccccc2)c2ccccc2)n3CC)cn1 [Compound 98, 5-chloro-1-ethyl-N-(1-ethyl-1H-pyrazol-4-yl)-2-(hydroxydiphenylmethyl)-1H-imidazo[4,5-b]pyridine-6-carboxamide]",IC50,[1],10 to 100 nM
same,MNT,[2],A
same,IC50,[3],1 to 10 nM
"CCn1cnc(NC(=O)c2cc3c(nc2OC)nc(C(O)(c2ccccc2F)c2ccccc2F)n3CC)n1 [Compound 102, 2-[bis(2-fluorophenyl)(hydroxy)methyl]-1-ethyl-N-(1-ethyl-1H-1,2,4-triazol-3-yl)-5-methoxy-1H-imidazo[4,5-b]pyridine-6-carboxamide]",IC50,[1],1 to 10 nM
same,MNT,[2],A
same,IC50,[3],0.01 to 1 nM
"CCn1cnc(NC(=O)c2cc3c(nc2OC)nc(C(O)(c2ccccc2)c2ccccc2)n3CC)n1 [Compound 103, 1-ethyl-N-(1-ethyl-1H-1,2,4-triazol-3-yl)-2-(hydroxydiphenylmethyl)-5-methoxy-1H-imidazo[4,5-b]pyridine-6-carboxamide]",IC50,[1],1 to 10 nM
same,MNT,[2],A
same,IC50,[3],1 to 10 nM
"CCn1c(C(O)(c2ccccc2)c2ccccc2)nc2ccc(C(=O)NC[C@@H](C)O)cc21 [Reference Compound, 3-Ethyl-2-[hydroxy(diphenyl)methyl]-N-[(2R)-2-hydroxypropyl]benzimidazole-5-carboxamide, reference compound]",IC50,[1],1 to 10 nM
same,MNT,[2],B
same,IC50,[3],100 to 10000 nM
